Patent US20210213103A1, “METHODS OF TREATING DRY EYE SYNDROME” (REGENTREE, LLC, priority 2016, published 2021)

Assays:
subjects with dry eye = test: Tear film break up time (TFBUT), Example 1 clinical study; type: in vivo, human; details: for Tear Film Break Up Time, change from baseline (mean): visit 2 (baseline) to visit 5, 0.05% and 0.1% groups pooled; for Tear Film Break Up Time, Mean Difference between Tβ4 and Placebo (Tβ4-Placebo): visit 2 to visit 5
Experimental: As used herein, the terms “tear breakup time” or “TBUT” or “tear film breakup time” or “TFBUT” can refer to a clinical test that measures the interval between the individual's last complete blink and the breakup of the tear film. The test can be used to assess for DES. To measure TBUT, fluorescein is instilled into the patient's tear film and the patient is asked not to blink while the tear film is observed under a broad beam of cobalt blue illumination. The TBUT is recorded as the number of seconds that elapse between the last blink and the appearance of the first dry spot in the tear film.
The presently disclosed subject matter also provides for methods of improving tear film stability. Tear film stability can be evaluated by various assessments in the art, including but not limited to a TFBUT analysis. […] In order to achieve maximum fluorescence, an appropriate waiting period is implemented after instillation before evaluating TFBUT. With the aid of a slit-lamp, the integrity of the tear film can be monitored by noting the time it takes to form […] from the time that the eye is opened. TFBUT can be measured in seconds using a stopwatch and a digital image recording system for one eye followed by the second eye. A negative test result is normal, whereby more than about 10 seconds of TFBUT is recorded.
This study was a multicenter, randomized, double-masked study designed to evaluate the efficacy and safety of 0.05% and 0.1% Tβ4 ophthalmic solution compared to placebo in subjects with dry eye.
The study consisted of two periods: a 7-day run-in period and a 28-day treatment period.
The clinical dosage form and packaging of Tβ4 ophthalmic solution and the placebo ophthalmic solutions were identical sterile, low-density polyethylene unit-dose non-preserved bottles. They were packaged in foil-wrap pouches to prevent light exposure, each containing single-use bottles. Throughout the study, between day 1 and day 29, patients were instructed to instill one drop of study medication in each eye four times daily, once in the morning, noon, afternoon and in the evening before bed. Patients were assigned randomization kit numbers in strict numerical sequence, using a code generated by an independent biostatistician. All investigators, study and site personnel, and patients were masked to the treatment assignments.
Patients were evaluated on day 8 (visit 3), day 15 (visit 4), and day 29 (visit 5) during the dosing period. Exposure to the CAE occurred on days 14 and 28. At each study visit, a panel of dry eye signs and symptoms and safety measures were evaluated (including both before [pre-CAE] and after [post-CAE] exposure).

[1] = injectable solution, 14 consecutive days, four escalating dose levels; cited from earlier work
[2] = higher tear film stability group
[3] = lower tear film stability group

Substance: thymosin beta 4 [Tβ4]
- Tear Film Break Up Time, change from baseline (mean) (subjects with dry eye; [2]): 0.14 s
- Tear Film Break Up Time, Mean Difference between Tβ4 and Placebo (Tβ4-Placebo) (subjects with dry eye; [2]): 0.09 s
- Tear Film Break Up Time, change from baseline (mean) (subjects with dry eye; [3]): 0.74 s
- Tear Film Break Up Time, Mean Difference between Tβ4 and Placebo (Tβ4-Placebo) (subjects with dry eye; [3]): 0.20 s
- safety and tolerability [1]: safe and well-tolerated
